In test [1] the test system is PVY. Briefly: Anti-PVY curative activity, half-leaf method. The conditions noted are these: Potato virus Y, in Chenopodium amaranticolor, 120 h, read-out: Curative effect (%).
Description: (§1) Owing to its non-host resistance to PVY, Chenopodium amaranticolor develops a hypersensitive response (HR) within 48–72 hours post-inoculation, producing sharply delimited chlorotic or necrotic local lesions on the inoculated leaves. The number of lesions correlates linearly and positively with virus titre, thereby serving as a quantitative indicator of viral virulence and of the inactivating efficacy of test compounds. The PVY viral extract was rubbed onto the surface of Nicotiana tabacum K326 leaves. After the characteristic symptoms of leaf wrinkling and inward curling appeared, the leaves were harvested and stored at -80°C, then purified according to previously reported methods.[50]^,[51]^,[52] Host leaves were ground to a fine powder in liquid nitrogen, followed by homogenization on ice in 0.5 M phosphate buffer. An equal volume of chloroform:n-butanol (1:1, v/v) corresponding to 10% of the total buffer volume was added, and the mixture was further homogenized on ice. After centrifugation at 10,000g for 20 minutes (4°C), the supernatant was collected as the crude PVY extract. Using 4–5-leaf-stage Chenopodium amaranticolor maintained under optimal growth conditions, a bioassay was conducted with two plants per treatment to systematically evaluate the curative, protective, and inactivating efficacy of the target compound against PVY.[53] […] Each compound was evaluated in three replicates, and the average value was calculated.
Chenopodium amaranticolor was selected as the dead spot host. Excess leaves were first trimmed off, and a uniform layer of carborundum was applied to the leaf surface. The leaves were then inoculated by rubbing with a 1200-fold diluted virus solution. After more than an hour, the carborundum on the leaf surface was washed off with running water, and a 500 μg/mL drug solution was prepared. […] The treated plants were cultivated in a greenhouse for observation, and the number of dead spots on the leaves was counted after approximately 5 days.
Test [2] deals with PVY. Briefly: Anti-PVY protective activity, half-leaf method. The conditions noted are these: Potato virus Y, in Chenopodium amaranticolor, 120 h, read-out: Protective effect (%).
Description: as §1
In contrast to the antiviral therapeutic activity, the leaves were first treated with the drug solution. A 500 μg/mL drug solution was applied to the right side of the leaves, with the left side serving as a control and treated with a 1% Tween 80 solution. After the leaves had dried under natural conditions, they were placed in a greenhouse for 24 hours before inoculation by rubbing with carborundum, following the same procedures as those for curative activity. After treatment, the plants were maintained in a greenhouse, and the number of local lesions on the inoculated leaves was recorded approximately 5 days.
Test [3] relates to PVY. The experiment in a line: Anti-PVY inactivating activity, half-leaf method. The conditions noted are these: Potato virus Y, in Chenopodium amaranticolor; for pest or weed control at 500 µg/mL: 120 h; for EC50: read-out: Inactivating effect EC50.
Description: as §1
Two different dilutions of the virus solution (600-fold and 1200-fold) were prepared, along with a 1000 μg/mL drug solution. The drug solution was mixed with the 600-fold diluted virus solution on ice and incubated for 30 minutes. During the incubation period, the left side of the leaves was treated with a 1200-fold diluted virus solution. After the incubation was completed, the mixed system of drug and virus is inoculated on the right side of the leaf. After waiting for the infection to be completed, the carborundum on the leaf surface was washed off with running water, and the plants were then cultivated in a greenhouse. The number of dead spots on the leaves was counted after approximately 5 days.
Setting [4] is: read-out: Inactivating effect (%), 500 μg/mL, host Chenopodium amaranticolor, average of three replicates.

Molecules are shown by their SMILES. Converted amounts (≈) assume the structure as drawn.

A word on the EC50: it is the midpoint of the concentration-response curve. For `COc1ccc(/C=C2\Oc3cc(OCC(=O)NS(=O)(=O)c4ccc(Cl)cc4)ccc3C2=O)cc1` [D1], the pest or weed control at 500 µg/mL is 38.7 ± 3.7% in the test with PVY [1], 44.8 ± 3.8% in the test with PVY [2] and 50 ± 3.5% with PVY [3] (setting [4]). The EC50 in the test with PVY [3] stood at 307 ± 13.7 µg/mL (≈ 614 µM).
As to `COc1ccc(/C=C2\Oc3cc(OCC(=O)NS(=O)(=O)c4ccccc4)ccc3C2=O)cc1` [D2], the pest or weed control at 500 µg/mL in the test with PVY [1] was 41.4 ± 2.9%; in the test with PVY [2] it was 36.9 ± 2.7%; in the test on PVY [3] (setting [4]) it was 60 to 80%.
With `COc1ccccc1/C=C1\Oc2cc(OCC(=O)NS(=O)(=O)c3ccc(Cl)cc3)ccc2C1=O` [D3], the values for the pest or weed control at 500 µg/mL in the test on PVY [1], with PVY [2] and in the test on PVY [3] (setting [4]) were 40.1 ± 3.8%, 36.9 ± 2.9% and 60 to 80%, respectively.
On to `COc1ccccc1/C=C1\Oc2cc(OCC(=O)NS(=O)(=O)c3ccccc3)ccc2C1=O` [D4], for which the pest or weed control at 500 µg/mL in the test with PVY [1] was 43.1 ± 2.9%; in the test with PVY [2], 33.8 ± 1%; in the test with PVY [3] (setting [4]) it was 60 to 80%.
The matching figures for `COc1cccc(/C=C2\Oc3cc(OCC(=O)NS(=O)(=O)c4ccc(Cl)cc4)ccc3C2=O)c1` [D5]: 41.7 ± 3.5%, 37.6 ± 4.8% and 60 to 80%.
Take `COc1cccc(/C=C2\Oc3cc(OCC(=O)NS(=O)(=O)c4ccccc4)ccc3C2=O)c1` [D6]: the values for the pest or weed control at 500 µg/mL in the test with PVY [1], in the test with PVY [2] and in the test with PVY [3] (setting [4]) were 36.5 ± 2.9%, 40.5 ± 0.8% and 58.8 ± 4.5%, respectively.
Turning to `COc1ccc(/C=C2\Oc3cc(OCC(=O)NS(=O)(=O)c4ccc(F)cc4)ccc3C2=O)c(OC)c1` [D9], the pest or weed control at 500 µg/mL with PVY [1] was found to be 45.7 ± 3.3%; with PVY [2] it was 35.6 ± 2.5%; in the test on PVY [3] (setting [4]), 58.1 ± 5.4%.
Consider `COc1ccc(/C=C2\Oc3cc(OCC(=O)NS(=O)(=O)c4ccc(F)cc4)ccc3C2=O)cc1` [D10], for which the pest or weed control at 500 µg/mL with PVY [1] was found to be 24.4 ± 1.9%; with PVY [2], 33.9 ± 4%; with PVY [3] (setting [4]), 43.7 ± 5%.
`COc1cccc(/C=C2\Oc3cc(OCC(=O)NS(=O)(=O)c4ccc(F)cc4)ccc3C2=O)c1` [D11]: the pest or weed control at 500 µg/mL in the test on PVY [1] turned out to be 40.6 ± 2%; in the test on PVY [2], 42.7 ± 2.8%; in the test with PVY [3] (setting [4]), 52.9 ± 2.8%.
Turning to `COc1ccccc1/C=C1\Oc2cc(OCC(=O)NS(=O)(=O)c3ccc(F)cc3)ccc2C1=O` [D12], the pest or weed control at 500 µg/mL came out at 34.1 ± 3.5% with PVY [1], 44.5 ± 1.5% in the test with PVY [2] and 59.4 ± 3.6% in the test with PVY [3] (setting [4]).
With `COc1ccc(/C=C2\Oc3cc(OCC(=O)NS(=O)(=O)c4ccc(Br)cc4)ccc3C2=O)c(OC)c1` [D14], the figures for the pest or weed control at 500 µg/mL with PVY [1], in the test on PVY [2] and in the test with PVY [3] (setting [4]) were 29.8 ± 4.8%, 37.9 ± 4.4% and 49.2 ± 4.2%, respectively.
As for `COc1ccccc1/C=C1\Oc2cc(OCC(=O)NS(=O)(=O)c3ccc(Br)cc3)ccc2C1=O` [D15], the pest or weed control at 500 µg/mL stood at 37.1 ± 0.9% in the test with PVY [1], 39.3 ± 2.9% in the test on PVY [2] and 53.4 ± 4.2% in the test with PVY [3] (setting [4]).
For the compound `COc1cccc(/C=C2\Oc3cc(OCC(=O)NS(=O)(=O)c4ccc(Br)cc4)ccc3C2=O)c1` [D16], the pest or weed control at 500 µg/mL with PVY [1] was determined as 29 ± 1.6%; with PVY [2], 36.9 ± 2.4%; in the test on PVY [3] (setting [4]), 42.9 ± 4.3%.
As to `COc1cccc(/C=C2\Oc3cc(OCC(=O)NS(=O)(=O)c4ccc(Cl)cc4)ccc3C2=O)c1OC` [D17], the pest or weed control at 500 µg/mL is 46.2 ± 1.4% in the test with PVY [1], 40.7 ± 2.3% with PVY [2] and 60 to 80% in the test on PVY [3] (setting [4]). Further, the EC50 in the test with PVY [3] was 142 ± 15.2 µg/mL (≈ 267 µM).
`COc1ccc(/C=C2\Oc3cc(OCC(=O)NS(=O)(=O)c4ccc(Cl)cc4)ccc3C2=O)cc1OC` [D18]: the pest or weed control at 500 µg/mL with PVY [1] worked out at 25.5 ± 4%; with PVY [2], 38.2 ± 3%; with PVY [3] (setting [4]), 56.8 ± 2.8%.
Turning to `COc1cc(/C=C2\Oc3cc(OCC(=O)NS(=O)(=O)c4ccc(Cl)cc4)ccc3C2=O)cc(OC)c1` [D19], the pest or weed control at 500 µg/mL in the test with PVY [1] stood at 36.4 ± 5.6%; in the test with PVY [2], 35.7 ± 3.8%; with PVY [3] (setting [4]) it was 46 ± 3%.
As for `COc1cccc(/C=C2\Oc3cc(OCC(=O)NS(=O)(=O)c4ccccc4)ccc3C2=O)c1OC` [D20], the pest or weed control at 500 µg/mL with PVY [1] was determined as 34.9 ± 4.9%; in the test with PVY [2] it was 31.3 ± 3.8%; in the test with PVY [3] (setting [4]), 64.7 ± 3.4%.
For the compound `COc1cc(/C=C2\Oc3cc(OCC(=O)NS(=O)(=O)c4ccc(Br)cc4)ccc3C2=O)cc(OC)c1` [D21], the pest or weed control at 500 µg/mL in the test with PVY [1] is 33 ± 3.9%; in the test with PVY [2], 22.7 ± 1.2%; in the test on PVY [3] (setting [4]), 50.5 ± 1.6%.
Turning to `COc1ccc(/C=C2\Oc3cc(OCC(=O)NS(=O)(=O)c4ccc(Br)cc4)ccc3C2=O)cc1OC` [D22], the figures for the pest or weed control at 500 µg/mL with PVY [1], with PVY [2] and in the test on PVY [3] (setting [4]) were 36.2 ± 1.5%, 28.1 ± 2.3% and 52 ± 3%, respectively.
The matching figures for `COc1ccc(/C=C2\Oc3cc(OCC(=O)NS(=O)(=O)c4ccccc4)ccc3C2=O)cc1OC` [D23]: 35.3 ± 1.5%, 33.4 ± 3.9% and 45.4 ± 1.1%.
`COc1cc(/C=C2\Oc3cc(OCC(=O)NS(=O)(=O)c4ccccc4)ccc3C2=O)cc(OC)c1` [D24]: the pest or weed control at 500 µg/mL with PVY [1] was 50.1 ± 1.8%; with PVY [2] it was 31 ± 3%; in the test with PVY [3] (setting [4]) it was 60 to 80%. Moreover, the EC50 with PVY [3] was found to be 147 ± 11 µg/mL (≈ 297 µM).
With `COc1cccc(/C=C2\Oc3cc(OCC(=O)NS(=O)(=O)c4ccc(Br)cc4)ccc3C2=O)c1OC` [D25], the pest or weed control at 500 µg/mL in the test on PVY [1] was 35.9 ± 3.9%; in the test on PVY [2], 41.9 ± 2.6%; in the test with PVY [3] (setting [4]), 55.4 ± 2%.
For `COc1ccc(/C=C2\Oc3cc(OCC(=O)NS(=O)(=O)c4ccc(F)cc4)ccc3C2=O)cc1OC` [D26] the same measures were 32.4 ± 1.7%, 40.2 ± 5% and 55.3 ± 3%.
For `COc1cccc(/C=C2\Oc3cc(OCC(=O)NS(=O)(=O)c4ccc(F)cc4)ccc3C2=O)c1OC` [D27] the same measures were 45.1 ± 3.7%, 33.9 ± 2.3% and 60 to 80%.
In the case of `COc1cc(/C=C2\Oc3cc(OCC(=O)NS(=O)(=O)c4ccc(F)cc4)ccc3C2=O)cc(OC)c1` [D28], the pest or weed control at 500 µg/mL amounted to 39.9 ± 2.9% with PVY [1], 32.5 ± 4.4% with PVY [2] and 56.4 ± 4.7% with PVY [3] (setting [4]).
The matching figures for `COc1cc(OC)c(/C=C2\Oc3cc(OCC(=O)NS(=O)(=O)c4ccc(F)cc4)ccc3C2=O)c(OC)c1` [D29]: 36.7 ± 4%, 37.9 ± 2.7% and 57.1 ± 4.3%.
Regarding `COc1ccc(OC)c(/C=C2\Oc3cc(OCC(=O)NS(=O)(=O)c4ccccc4)ccc3C2=O)c1` [D30], the pest or weed control at 500 µg/mL with PVY [1] worked out at 33.3 ± 1.4%; with PVY [2], 34.2 ± 3.3%; with PVY [3] (setting [4]), 49.4 ± 3.4%.
`COc1cc(OC)c(/C=C2\Oc3cc(OCC(=O)NS(=O)(=O)c4ccccc4)ccc3C2=O)c(OC)c1` [D31]: the pest or weed control at 500 µg/mL turned out to be 42.9 ± 2.4% in the test with PVY [1], 26.3 ± 2.6% in the test on PVY [2] and 57.4 ± 4.3% with PVY [3] (setting [4]).
For the compound `COc1cc(OC)c(/C=C2\Oc3cc(OCC(=O)NS(=O)(=O)c4ccc(Cl)cc4)ccc3C2=O)c(OC)c1` [D32], the pest or weed control at 500 µg/mL in the test on PVY [1] came to 43.4 ± 2.3%; with PVY [2], 33.3 ± 2.6%; in the test on PVY [3] (setting [4]) it was 53.8 ± 3%.
For `COc1ccc(OC)c(/C=C2\Oc3cc(OCC(=O)NS(=O)(=O)c4ccc(Cl)cc4)ccc3C2=O)c1` [D33] the same measures were 41.2 ± 2.4%, 39.7 ± 2.7% and 51.1 ± 3.9%.
For the compound `COc1ccc(OC)c(/C=C2\Oc3cc(OCC(=O)NS(=O)(=O)c4ccc(F)cc4)ccc3C2=O)c1` [D34], the figures for the pest or weed control at 500 µg/mL in the test on PVY [1], with PVY [2] and in the test on PVY [3] (setting [4]) were 39.9 ± 3.7%, 36 ± 1.6% and 46.9 ± 2.4%, respectively.
For the compound `COc1ccccc1/C=C1\Oc2cc(OCC(=O)NS(=O)(=O)c3cccc(C(F)(F)F)c3)ccc2C1=O` [D35], the pest or weed control at 500 µg/mL with PVY [1] was 37.6 ± 1.8%; with PVY [2], 39.9 ± 2.8%; with PVY [3] (setting [4]) it was 46.6 ± 2%.
The matching figures for `COc1ccc(/C=C2\Oc3cc(OCC(=O)NS(=O)(=O)c4cccc(C(F)(F)F)c4)ccc3C2=O)cc1` [D36]: 36.8 ± 2.2%, 33.9 ± 4.1% and 55.1 ± 2.8%.
Consider `COc1ccc(/C=C2\Oc3cc(OCC(=O)NS(=O)(=O)c4cccc(C(F)(F)F)c4)ccc3C2=O)c(OC)c1` [D37], for which the pest or weed control at 500 µg/mL with PVY [1] is 38.2 ± 2.2%; with PVY [2] it was 29.8 ± 2.7%; in the test with PVY [3] (setting [4]) it was 43.8 ± 3.2%.
The matching figures for `COc1ccc(/C=C2\Oc3cc(OCC(=O)NS(=O)(=O)c4ccc(C(F)(F)F)cc4)ccc3C2=O)c(OC)c1` [D38]: 36.7 ± 3.5%, 28 ± 4% and 33.3 ± 3.1%.
As for `CNCC(=O)N[C@@H](CO)C(=O)N[C@H]1[C@H](O)[C@@H](O)[C@H](n2ccc(N)nc2=O)O[C@@H]1C(N)=O` [NNM, ningnanmycin, reference compound], the pest or weed control at 500 µg/mL with PVY [1] came to 49 ± 3.9%; in the test on PVY [2], 49.1 ± 1.8%; in the test with PVY [3] (read-out: Inactivating effect (%)) it was 83.3 ± 1.2%. The EC50 in the test with PVY [3] is 54.3 ± 2.2 µg/mL (≈ 122 µM).

(Values after publication PMC12663734, “Sulfonamine-containing aurone derivatives act as inhibitors of intercellular movement of potato virus Y” (iScience, 2025).)
